These results are taken from ChEMBL document CHEMBL3639303, “Organic compounds” (2013).

The target in this assay is T1, Renin (Homo sapiens, UniProt P00797).
T1 sequence (P00797 whole entry): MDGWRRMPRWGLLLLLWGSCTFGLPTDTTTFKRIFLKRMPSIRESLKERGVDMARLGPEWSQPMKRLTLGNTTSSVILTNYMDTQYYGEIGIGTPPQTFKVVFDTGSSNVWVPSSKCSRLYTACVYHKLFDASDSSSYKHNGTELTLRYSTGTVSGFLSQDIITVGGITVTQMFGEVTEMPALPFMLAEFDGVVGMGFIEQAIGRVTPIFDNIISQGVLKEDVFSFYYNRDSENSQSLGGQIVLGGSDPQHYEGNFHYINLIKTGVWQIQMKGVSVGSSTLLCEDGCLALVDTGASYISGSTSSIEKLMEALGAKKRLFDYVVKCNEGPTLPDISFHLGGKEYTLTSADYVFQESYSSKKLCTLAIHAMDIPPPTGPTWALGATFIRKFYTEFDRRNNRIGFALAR
The experiment in a line: FRET Assay: Inhibition activity of renin using FRET assay.
`CCOC[C@H](NC(=O)[C@@H]1CNC[C@H](C(=O)N(c2ccc(C(C)C)cn2)C2CC2)C1)C(C)C`: the IC50 came out at 0.9 nM. This counts as sub-nanomolar.

On to `CCOC[C@@H](CC(C)C)NC(=O)[C@@H]1CNC[C@H](C(=O)N(c2ccc(C(C)C)cn2)C2CC2)[C@@H]1O`, for which the IC50 stood at 2 nM. In the case of `CCOC[C@@H](CC(C)C)NC(=O)[C@@H]1CNC[C@H](C(=O)N(c2cc(OC)c(C(C)C)cn2)C2CC2)C1`, half-maximal inhibition (IC50) was put at 0.9 nM. In the case of `CCOC[C@@H](CC(C)C)NC(=O)[C@@H]1CNC[C@H](C(=O)N(c2cc(OCC)c(CC)cn2)C2CC2)C1`, half-maximal inhibition (IC50) required 0.6 nM. `CCOC[C@@H](CC(C)C)NC(=O)[C@@H]1CNC[C@H](C(=O)N(c2ccc(C(C)(C)OC)cn2)C2CC2)[C@@H]1O`: inhibition was half-maximal at 2 nM (IC50). Next, `CCOC[C@@H](NC(=O)[C@@H]1CNC[C@H](C(=O)N(c2cc(OC)c(C(C)C)cn2)C2CC2)C1)C1CCCCC1`: 0.3 nM; `CCOC[C@@H](CC(C)C)NC(=O)[C@@H]1CNC[C@H](C(=O)N(CC(C)C)c2cc(OC)c(C(C)C)cn2)C1`: 0.8 nM. The molecule `CCOC[C@@H](CC(C)C)NC(=O)[C@@H]1CNC[C@H](C(=O)N(c2cc(OCCCOC)c(C(C)C)cn2)C2CC2)[C@@H]1O` displayed an IC50 of 0.4 nM.
